This note sets out measurements from ChEMBL document CHEMBL3875216, “Synthesis of antimicrobial glucosamides as bacterial quorum sensing mechanism inhibitors” (Bioorg Med Chem, 2017).

Series [1] relates to Pseudomonas aeruginosa. The experiment in a line: Growth inhibition of Pseudomonas aeruginosa MH602 at 1 mM after 24 hrs relative to control. The settings on record: MH602, 24 h, read-out: GI.
For series [2], the system named is Escherichia coli. The experiment in a line: Growth inhibition of Escherichia coli MT102 at 2 mM after 24 hrs relative to control. The settings on record: MT102, 24 h, read-out: GI.
Series [3] relates to Pseudomonas aeruginosa. The experiment in a line: Growth inhibition of Pseudomonas aeruginosa MH602 at 2 mM after 8 hrs relative to control. The following applies: MH602, 8 h, read-out: GI.
The test system of series [4] is Escherichia coli. The experiment in a line: Growth inhibition of Escherichia coli MT102 at 500 uM after 24 hrs relative to control. The following applies: MT102, 24 h, read-out: GI.
The subject of series [5] is Escherichia coli. The experiment in a line: Inhibition of LuxR-dependent quorum sensing activity in Escherichia coli MT102 harboring pJBA132 assessed as inhibition of OHHL-induced GFP expression at 1 mM measured after 8 hrs by fluorescence assay relative to control.
In series [6] the test system is Pseudomonas aeruginosa. The series is described as follows: Growth inhibition of Pseudomonas aeruginosa MH602 at 2 mM after 24 hrs relative to control. The following applies: MH602, 24 h, read-out: GI.
The subject of series [7] is Pseudomonas aeruginosa. The series is described as follows: Inhibition of LasR-dependent quorum sensing activity in Pseudomonas aeruginosa MH602 harboring GFP-fused […] LasB promoter assessed as inhibition of 3-oxo-dodecanoyl HSL-induced GFP expression at 1 mM measured after 8 hrs by fluorescence assay relative to control.
Series [8] has as its system Pseudomonas aeruginosa. The series is described as follows: Inhibition of LasR-dependent quorum sensing activity in Pseudomonas aeruginosa MH602 harboring GFP-fused […] LasB promoter assessed as inhibition of 3-oxo-dodecanoyl HSL-induced GFP expression at 2 mM measured after 8 hrs by fluorescence assay relative to control.
In series [9] the test system is Pseudomonas aeruginosa. The experiment in a line: Growth inhibition of Pseudomonas aeruginosa MH602 at 500 uM after 24 hrs relative to control. The following applies: MH602, 24 h, read-out: GI.
The test system of series [10] is Escherichia coli. The series is described as follows: Growth inhibition of Escherichia coli MT102 at 500 uM after 8 hrs relative to control. The settings on record: MT102, 8 h, read-out: GI.
Series [11] deals with Escherichia coli. The series is described as follows: Growth inhibition of Escherichia coli MT102 at 2 mM after 8 hrs relative to control. The following applies: MT102, 8 h, read-out: GI.
Series [12] relates to Escherichia coli. The series is described as follows: Growth inhibition of Escherichia coli MT102 at 1 mM after 24 hrs relative to control. The following applies: MT102, 24 h, read-out: GI.
In series [13] the test system is Escherichia coli. The series is described as follows: Inhibition of LuxR-dependent quorum sensing activity in Escherichia coli MT102 harboring pJBA132 assessed as inhibition of OHHL-induced GFP expression at 1 mM measured after 24 hrs by fluorescence assay relative to control.
Series [14] relates to Pseudomonas aeruginosa. The series is described as follows: Inhibition of LasR-dependent quorum sensing activity in Pseudomonas aeruginosa MH602 harboring GFP-fused […] LasB promoter assessed as inhibition of 3-oxo-dodecanoyl HSL-induced GFP expression at 500 uM measured after 8 hrs by fluorescence assay relative to control.
Series [15] deals with Escherichia coli. The experiment in a line: Growth inhibition of Escherichia coli MT102 at 1 mM after 8 hrs relative to control. The settings on record: MT102, 8 h, read-out: GI.
For series [16], the system named is Escherichia coli. The series is described as follows: Inhibition of LuxR-dependent quorum sensing activity in Escherichia coli MT102 harboring pJBA132 assessed as inhibition of OHHL-induced GFP expression at 2 mM measured after 24 hrs by fluorescence assay relative to control.
Series [17] concerns Pseudomonas aeruginosa. The series is described as follows: Growth inhibition of Pseudomonas aeruginosa MH602 at 500 uM after 8 hrs relative to control. The settings on record: MH602, 8 h, read-out: GI.
Series [18] relates to Pseudomonas aeruginosa. The experiment in a line: Growth inhibition of Pseudomonas aeruginosa PA14 at 2 mM after 24 hrs relative to control. The settings on record: 2000 µM.
The test system of series [19] is Pseudomonas aeruginosa. The experiment in a line: Growth inhibition of Pseudomonas aeruginosa MH602 at 1 mM after 8 hrs relative to control. The settings on record: MH602, 8 h, read-out: GI.
In series [20] the test system is Pseudomonas aeruginosa PA14. The series is described as follows: Inhibition of quorum sensing-regulated pyocyanin production in Pseudomonas aeruginosa PA14 at 2 mM after 24 hrs relative to control.
In series [21] the test system is Escherichia coli. The experiment in a line: Inhibition of LuxR-dependent quorum sensing activity in Escherichia coli MT102 harboring pJBA132 assessed as inhibition of OHHL-induced GFP expression at 2 mM measured after 8 hrs by fluorescence assay relative to control.
Series [22] relates to Pseudomonas aeruginosa PA14. The series is described as follows: Inhibition of quorum sensing-regulated biofilm formation in Pseudomonas aeruginosa PA14 at 2 mM after overnight incubation by crystal violet staining based assay relative to control.
Series [23] has as its system Pseudomonas aeruginosa. The experiment in a line: Inhibition of LasR-dependent quorum sensing activity in Pseudomonas aeruginosa MH602 harboring GFP-fused […] LasB promoter assessed as inhibition of 3-oxo-dodecanoyl HSL-induced GFP expression at 2 mM measured after 24 hrs by fluorescence assay relative to control.

For the molecule `CC(=O)OC[C@H]1O[C@@H](OC(C)=O)[C@H](NC(=O)CCCc2ccccc2)[C@@H](OC(C)=O)[C@@H]1OC(C)=O`, the inhibition at 1000 µM was 25.9% in series [1], 19.7% in series [12], 64.7% in series [15] and 30.9% in [19]. Also, the inhibition at 2000 µM in series [2] is 26.7%; in series [3], 37.2%; in [6] it was 3.3%; in series [11] it was 93.2%. In addition, the inhibition at 500 µM in series [4] is 5.2%; in series [9], 0%; in [10] it was 15.1%; in series [17], 7.3%. The inhibition in series [5] is 18.1%; in [7] it was 4.9%; in [8] it was 5.2%; in [13], 21.1%; in [14] it was 7.3%; in [16] it was 43.8%. In series [18], the “growth inhibition (GI)” value was “Non-Toxic”.

Take `CCCC(=O)CC(=O)N[C@H]1[C@H](OC(C)=O)O[C@H](COC(C)=O)[C@@H](OC(C)=O)[C@@H]1OC(C)=O`: the inhibition at 1000 µM in [1] is 25.9%; in series [12], 49.2%; in [15], 44.1%; in [19], 66.8%. Further, the inhibition at 2000 µM was 65.1% in series [2], 74.9% in series [3], 4.6% in [6] and 50.3% in [11]. For the same molecule, the inhibition at 500 µM in series [4] is 12.7%; in series [9], 6.3%; in [10], 22.2%; in series [17], 5.7%. Besides, the inhibition was found to be 3.5% in [20]; 85.4% in series [5]; 59.6% in [7]; 64.5% in series [8]; 88.1% in series [21]; 38.1% in series [22]. Further, the values for the inhibition in series [13], in series [14] and in series [16] were 20.7%, 5.3% and 40.9%, respectively. Besides, in series [18], the “growth inhibition (GI)” value is reported as “Non-Toxic”.

With `CCCCCCCC(=O)N[C@H]1[C@H](OC(C)=O)O[C@H](COC(C)=O)[C@@H](OC(C)=O)[C@@H]1OC(C)=O`, the inhibition at 1000 µM in [1] worked out at 0%; in series [12] it was 9.6%; in series [15], 0%; in series [19], 2.5%. For the same molecule, the inhibition at 2000 µM came to 21.4% in series [2], 33.1% in series [3], 2.8% in series [6] and 14.9% in series [11]. The inhibition at 500 µM in series [4] amounted to 6.2%; in [9] it was 0%; in [10], 23.7%; in series [17], 2.7%. For the same molecule, the inhibition in series [5] is 2.3%; in [23], 26.1%; in [7], 8.5%; in series [21], 36%; in series [22], 21.1%; in series [14], 14.4%. The inhibition in series [16] amounted to 14%. For the same molecule, in series [18], the “growth inhibition (GI)” value is given as “Non-Toxic”.

For the molecule `CCCCCCCCCCCC(=O)N[C@@H]1[C@@H](O)[C@H](O)[C@@H](CO)O[C@H]1O`, the inhibition at 1000 µM in [1] is 37.2%; in [12] it was 14.3%; in series [15] it was 46.2%; in [19], 30.9%. In addition, the inhibition at 2000 µM in series [2] turned out to be 11.7%; in series [3] it was 32%; in series [6], 28.7%; in series [11], 28.6%. In addition, the inhibition at 500 µM worked out at 14.3% in series [4], 19.4% in series [9], 23.2% in series [10] and 25.5% in [17]. The inhibition in [20] is 20.7%; in series [5] it was 4.6%; in [22], 2.3%; in series [14], 12.6%. Moreover, in series [18], the “growth inhibition (GI)” value is reported as “Non-Toxic”.
